Measurements published in patent US20250025452A1 (Clearside Biomedical, Inc., priority 2023, published 2025).

Assay: Solubility (product profile)
Format: physicochemical
Settings: API
Excerpt: Further information providing the solubility, particle size, viscosity, and other product profile parameters of exemplary CLS-AX compositions (active pharmaceutical ingredient (API); and drug product) are provided in Table 1C.

Solubility (solvent): DMSO
Compound: CNC(=O)c1ccccc1Sc1ccc2c(/C=C/c3ccccn3)n[nH]c2c1 [Axitinib]
